“And” between values parts separate entries of the source, which are not always exact repeats. Equal entries are not always repeated. “Also recorded” adds a separate entry of the source.
Columns and labels:
HCT116 cells [1] = test: IL15 shedding into media, ELISA and MSD; format: cell-based, human; details: TMP doses
Procedure: To test if IL15 is shed into the media, supernatant from HCT116 cells expressing IL15-IL15Ra fusion constructs was subject to immunoassays such as ELISA and MSD (Rockville, Maryland). In FIG. 54B, OD indicates optical density. IL15 was measured in the media of cells expressing IL15-IL15Ra fusion constructs.

HCT116 tumors = test: HCT116 OT-IL15-009 tumors in mice, IL15-IL15Ra western blot and TMP levels; format: in vivo, BALB/c nude mice; details: TMP 100 then 300 mg/kg orally twice a day, 17 days
HEK-293T cells = test: IL15 western blot of DD IL15-IL15Ra, transient transfection; format: cell-based, human; details: 10 μM Trimethoprim or 1 μM Shield-1, 24 h
Procedure: To test ligand dependent IL15-IL15Ra production, 1 million HEK-293T cells were plated in a 6-well plate in growth media containing DMEM and 10 FBS and incubated overnight at 37° C., 5% CO2. […] Cells were harvested and IL15 levels are analyzed via western blotting using human IL15 antibody (Abcam, Cambridge, UK).

HEK293T cells = test: Surface IL15 and IL15Ra FACS, transient transfection; format: cell-based, human; details: Shield-1 or Trimethoprim
Procedure: 48 hours after transfection, cells were analyzed using FACS.

CD4 positive T cells = test: Kinetics of IL15Ra surface expression in T cells with TMP (Table 92); format: cell-based, human; details: for Stabilization ratio: TMP vs DMSO;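 as to all read-outs here: CD4 positive T cells, CD3/CD28 bead-activated and lentivirally transduced with DD-IL15-IL15Ra, read for surface IL15Ra positivity, stabilization ratio is fold change of ligand over DMSO, untransduced cells as negative control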
HCT-116 cells [2] = test: TMP dose response of IL15-IL15Ra surface expression (FACS); format: cell-based, human; details: 24 h
Description: Surface expression of IL15-IL15Ra fusion constructs was quantified by FACS using IL15Ra-PE antibody.
Surface expression of IL15-IL15Ra fusion construct was quantified by FACS using IL15Ra-PE antibody.

HCT116 cells [3] = test: IL15Ra immunoblot, TMP dose response; format: cell-based, human; details: TMP 10, 33, 100 μM, 24 h
Description: Cell lysates were obtained and immunoblotted with anti IL15Ra antibody.
Cell lysates were immunoblotted with anti IL15Ra antibody.

HCT116 cells [4] = test: IL15-IL15Ra in vivo tumor study (xenograft); details: 5 million HCT116 cells s.c., nude mice
Procedure: The functional capability of IL15-IL15Ra constructs was tested in vivo in xenograft assays. The experiment was designed to test the hypothesis that pulsatile expression of IL15-IL15Ra fusion proteins from cancer cell lines such as HCT116, in mice may stimulate the mouse's NK cells to attack the tumor leading to tumor growth inhibition. […] Tumors were allowed to develop over a period of 22 days.
Mice injected with OT-IL15-009 expressing cells were left untreated, or treated with vehicle control or TMP.

primary T cells = test: Regulated expression of IL15-IL15Ra in T cells (FACS); format: cell-based, human
Procedure: The transduction was carried out at two different lentivirus concentrations, 5 μl and 20 μl for the DD regulated construct using Lentiboost™ (Sirion Biotech, Germany). […] Samples were analyzed with an anti IL15Ra antibody using FACS. Additional controls samples such as cells treated with Lentiboost only, untransduced cells treated with DMSO or TMP, and Isotype controls were included in the FACS analysis. […] In both figures, DMSO-A and TMP-A represent cells treated with 5 μl of lentivirus and DMSO-B and TMP-B represent cells treated with 20 μl of lentivirus. […] Additionally, very low levels of IL15Ra were detected in the DMSO treated samples under the same conditions as well as in the untransduced T cells.
IL15Ra expression was measured using FACS.

HCT-116 cells [5] = test: Time course of IL15-IL15Ra surface expression with TMP; format: cell-based, human; details: 10 μM TMP
Procedure: The time course of ligand dependent stabilization of IL15-IL15Ra fusion constructs was measured in HCT-116 cells.

## OT-IL15-009: IL15-IL15Ra fusion with ecDHFR (R12Y, Y100I) DD
HCT116 cells [1]
  IL15 levels in the media (FIG. 54B, 54C): TMP dose dependent increase in IL15 levels detected in the media
HCT116 tumors
  IL15-IL15Ra in tumors by western blot (FIG. 49): elevated levels of IL15-IL15Ra expression, compared to tumors treated with the vehicle
HEK-293T cells
  IL15 stabilization by western blot (FIG. 24A): strong ligand (Trimethoprim) dependent stabilization of IL15
HEK293T cells
  Surface expression of IL15 and IL15Ra (FIG. 24B, 24C): strong ligand (Trimethoprim) dependent surface expression of IL15 and IL15Ra
CD4 positive T cells; 100 μM TMP
  Percentage of IL15Ra positive cells: 16.6% and 16%
CD4 positive T cells; 100 μM TMP, 1-24 h
  Proportion of CD4 T cells with surface IL15Ra over time (FIG. 48): from 4 hrs after TMP treatment, the cells transduced with the OT-IL15-009 construct and treated with TMP exhibited an increased proportion of cells with surface expression of IL15Ra
CD4 positive T cells; 100 μM TMP, 1 hours
  percentage of IL15Ra positive CD4 positive T cells, TMP: 1.86
CD4 positive T cells; 100 μM TMP, 2 hours
  percentage of IL15Ra positive CD4 positive T cells, TMP: 2.27
CD4 positive T cells; 100 μM TMP, 4 hours
  percentage of IL15Ra positive CD4 positive T cells, TMP: 4.01
CD4 positive T cells; 100 μM TMP, 6 hours
  percentage of IL15Ra positive CD4 positive T cells, TMP: 5.85
CD4 positive T cells; 100 μM TMP, 8 hours
  percentage of IL15Ra positive CD4 positive T cells, TMP: 7.09
CD4 positive T cells; 100 μM TMP, 15 hours
  percentage of IL15Ra positive CD4 positive T cells, TMP: 12.53
CD4 positive T cells; 100 μM TMP, 22 hours
  percentage of IL15Ra positive CD4 positive T cells, TMP: 14.57
CD4 positive T cells; 100 μM TMP, 24 hours
  percentage of IL15Ra positive CD4 positive T cells, TMP: 13.75
CD4 positive T cells; 1 hours
  percentage of IL15Ra positive CD4 positive T cells, DMSO: 2.03
  Stabilization ratio: 0.92
CD4 positive T cells; 2 hours
  percentage of IL15Ra positive CD4 positive T cells, DMSO: 2.12
CD4 positive T cells; 4 hours
  percentage of IL15Ra positive CD4 positive T cells, DMSO: 1.99
  Stabilization ratio: 2.02
CD4 positive T cells; 6 hours
  percentage of IL15Ra positive CD4 positive T cells, DMSO: 1.87
  Stabilization ratio: 3.13
CD4 positive T cells; 8 hours
  percentage of IL15Ra positive CD4 positive T cells, DMSO: 2.14
  Stabilization ratio: 3.31
CD4 positive T cells; 15 hours
  percentage of IL15Ra positive CD4 positive T cells, DMSO: 2.46
  Stabilization ratio: 5.09
CD4 positive T cells; 22 hours
  percentage of IL15Ra positive CD4 positive T cells, DMSO: 2.78
  Stabilization ratio: 5.24
CD4 positive T cells; 24 hours
  percentage of IL15Ra positive CD4 positive T cells, DMSO: 2.07
  Stabilization ratio: 6.64
CD4 positive T cells; untreated T cells
  Percentage of IL15Ra positive cells: 1.68% and 1%
HCT-116 cells [2]; DMSO
  Median Fluorescence Intensity, surface IL15-IL15Ra: 1260
HCT-116 cells [2]; TMP 0.01 μM
  Median Fluorescence Intensity, surface IL15-IL15Ra: 1384
HCT-116 cells [2]; TMP 0.02 μM
  Median Fluorescence Intensity, surface IL15-IL15Ra: 1492
HCT-116 cells [2]; TMP 0.05 μM
  Median Fluorescence Intensity, surface IL15-IL15Ra: 1947
HCT-116 cells [2]; TMP 0.14 μM
  Median Fluorescence Intensity, surface IL15-IL15Ra: 2741
HCT-116 cells [2]; TMP 0.41 μM
  Median Fluorescence Intensity, surface IL15-IL15Ra: 3360
HCT-116 cells [2]; TMP 3.7 μM
  Median Fluorescence Intensity, surface IL15-IL15Ra: 4265
HCT-116 cells [2]; TMP 11.11 μM
  Median Fluorescence Intensity, surface IL15-IL15Ra: 4267
HCT-116 cells [2]; TMP 33.33 μM
  Median Fluorescence Intensity, surface IL15-IL15Ra: 4485
HCT-116 cells [2]; TMP 100 μM
  Median Fluorescence Intensity, surface IL15-IL15Ra: 4633
HCT-116 cells [2]; TMP […]
  Median Fluorescence Intensity, surface IL15-IL15Ra: 4014
HCT116 cells [3]
  IL15Ra expression by immunoblot (FIG. 26, 27, 54A): virtually undetectable in the absence of TMP, and addition of increasing doses of TMP resulted in an increase in IL15Ra levels
HCT116 cells [4]
  Tumor growth (FIG. 55): mice treated with TMP had smaller tumors than mice of the other two groups
Primary T cells; 10 μM TMP 24/48 h or 0.156-160 μM 24 h
  IL15Ra expression in T cells (FIG. 35): increase in the expression of IL15Ra in T cells with both doses of lentivirus used; also recorded: An increase in the percentage of IL15Ra cells with increasing doses of TMP was observed
Primary T cells; T cells, surface expression
  % Positive cells, IL15Ra positive: 15.8%
  % Positive cells, IL15 and IL15Ra positive: 0.51%
  % Positive cells, IL15 positive: 0.60%
HCT-116 cells [5]; 0 h
  MFI, surface IL15-IL15Ra: 4004
HCT-116 cells [5]; 12 h
  MFI, surface IL15-IL15Ra: 7054
HCT-116 cells [5]; 16 h
  MFI, surface IL15-IL15Ra: 9390
HCT-116 cells [5]; 24 h
  MFI, surface IL15-IL15Ra: 14056
HCT-116 cells [5]; 48 h
  MFI, surface IL15-IL15Ra: 28644
HCT-116 cells [5]; 72 h
  MFI, surface IL15-IL15Ra: 35303
